Paper PMC6155683, “Pharmacokinetics Studies of 12 Alkaloids in Rat Plasma after Oral Administration of Zuojin and Fan-Zuojin Formulas” (Molecules : A Journal of Synthetic Chemistry and Natural …, 2017)
Read-outs that look alike come from different tables or passages of the source.

What was measured:
Caco-2 cell monolayer = conditions: cited from earlier work
[1] = Stability of analytes in rat plasma under storage conditions; format: physicochemical; conditions: n = 6; for Stability RE, 3 freeze-thaw cycles / Stability RE, 30 days at −20 °C: rat plasma; for Stability RE, processed samples' stability: room temperature 24 h
Description: The stabilities of analytes in plasma were assessed by analyzing the QC samples at three concentration levels under the following storage conditions: after three freeze (−20 °C)-thaw (room temperature) cycles; stored at −20 °C for 30 days, and comparing the results with those of freshly prepared QC samples. Stabilities of the processed samples at room temperature for 24 h were also assessed.

[2] = PK study of the 12 alkaloids in rat plasma after oral administration of ZJ and FZJ extract (LC–MS/MS); format: in vivo
Description: The time schedule included 15 time-points and six rats were sampled at each time-point. All the rats were orally administered with ZJ extract (suspended in water) at a dose of 3.38 g/kg body weight (dosages of the 12 alkaloids were shown in Table S4), equivalent to crude drug dose of 12 g/kg body weight. Blood samples were collected from the suborbital vein of the rats at 10, 20, 30, 60, 90, 120, 180, 240, 300, 330, 360, 480, 720, 1440, 2160 min after administration, and centrifuged immediately at 5000 rpm for 10 min. The plasma samples were stored at −20 °C until analysis.
Similarly, the time schedule of other rats included 15 time-points and six rats were orally administered with FZJ extract at a dose of 3.76 g/kg body weight (also equivalent to crude drug dose of 12 g/kg body weight, Table S4). Blood samples were collected and treated as mentioned above in the PK study of ZJ extract.
PK parameters of the 12 alkaloids including AUC0→t, AUC0→∞, mean retention time (MRT0→t, MRT0→∞), and elimination half-life (t1/2) were calculated with non-compartmental method by DAS 2.0 software (Mathematical Pharmacology Professional Committee of China, Shanghai, China). Maximum plasma drug concentration (Cmax) and time to reach the maximum plasma drug concentration (Tmax) were observed directly from the detected C–T data. The results were expressed as arithmetic mean ± standard deviation (SD).

P-gp = conditions: not told; cited from earlier work
[3] = jejunum vs ileum and colon; cited from earlier work
[4] = Two-compartment model fitting of C–T curves (DAS 2.0); format: in vivo, rat
From the text: Double peaks in C–T curves were observed repeatedly in the PK study of ZJ and related TCM prescriptions, but explanations to the phenomenon were still ambiguous. Generally, possible reasons for the double peak phenomenon could be summarized as follows: (a) enterohepatic circulation; […] (c) irregular pattern of gastric emptying. […] Moreover, Tmax of the alkaloids after administration of ZJ extract were deferred from that of FZJ administration. […] It probably play a major role in the double peak phenomenon, since the GI motility can affect the drug absorption.

[5] = Dose modified systemic exposure (AUC0→∞/D, Cmax/D)
Description: Because the alkaloids content in ZJ and FZJ were no longer linear with the proportion of CR and EF after extraction process, AUC0→∞/D (ratio of AUC0→∞ and dose) and Cmax/D (ratio of Cmax and dose) were calculated to estimate the dose modified systemic exposure levels of the 12 alkaloids (Table 3). […] Physicochemical properties of these alkaloids had been calculated in silico to predict their human colon adenocarcinoma cell (Caco-2) permeability according to the three-property based rule (3PRule). Polar surface area (PSA), logarithm of the n-octanol/water distribution coefficient (LogD), molecular weight (MW), hydrogen bond donors (HBD), hydrogen bond acceptors (HBA), number of free rotatable bonds (NRB) and molar solubility (S) of the alkaloids were retrieved from SciFinder® (American Chemical Society).

Compound: C[n+]1c2n(c(=O)c3ccccc31)CCc1c-2[nH]c2ccccc12 [dehydroevodiamine]
- Papp (Caco-2 cell monolayer): 12.6 ×10⁻⁶ cm/s
- Stability RE, 3 freeze-thaw cycles ([1]; high QC concentration): 5.86%
- Stability RE, 30 days at −20 °C ([1]; high QC concentration): 4.85%
- Stability RE, 3 freeze-thaw cycles ([1]; low QC concentration): 4.36%
- Stability RE, 30 days at −20 °C ([1]; low QC concentration): −6.34%
- Stability RE, 3 freeze-thaw cycles ([1]; medium QC concentration): 14.45%
- Stability RE, 30 days at −20 °C ([1]; medium QC concentration): −1.12%
- Stability RE, processed samples' stability ([1]; high QC concentration): −1.09%
- Stability RE, processed samples' stability ([1]; low QC concentration): −0.76%
- Stability RE, processed samples' stability ([1]; medium QC concentration): 4.78%
- Csec (drug concentration of the secondary peak in C–T curve) ([2]; rat, in vivo, po): 117.29 ± 45.45 ng/mL
- Tsec (time of the secondary peak in C–T curve) ([2]; rat, in vivo, po): 90 min
- AUC(0-inf) ([2]; rat, in vivo, po, 3.38 g/kg): 537 ± 55 ng·h/mL
- AUC(0-t) ([2]; rat, in vivo, po, 3.38 g/kg): 532 ± 57.8 ng·h/mL
- Cmax ([2]; rat, in vivo, po, 3.38 g/kg): 155 ± 27.9 ng/mL
- MRT inf ([2]; rat, in vivo, po, 3.38 g/kg): 4.71 h
- MRT last ([2]; rat, in vivo, po, 3.38 g/kg): 4.34 h
- Tmax ([2]; rat, in vivo, po, 3.38 g/kg): 4 h
- half-life ([2]; rat, in vivo, po, 3.38 g/kg): 3.21 ± 2.27 h
- AUC(0-inf) ([2]; rat, in vivo, po, 3.76 g/kg): 286 ± 24.1 ng·h/mL
- AUC(0-t) ([2]; rat, in vivo, po, 3.76 g/kg): 275 ± 23.2 ng·h/mL
- Cmax ([2]; rat, in vivo, po, 3.76 g/kg): 85.3 ± 13.4 ng/mL
- MRT inf ([2]; rat, in vivo, po, 3.76 g/kg): 5.96 h
- MRT last ([2]; rat, in vivo, po, 3.76 g/kg): 4.66 h
- Tmax ([2]; rat, in vivo, po, 3.76 g/kg): 1.5 h
- half-life ([2]; rat, in vivo, po, 3.76 g/kg): 5.03 ± 2.87 h

Compound: COc1cc2c(cc1OC)-c1cc3ccc(OC)c(OC)c3c[n+]1CC2 [palmatine]
- Stability RE, 3 freeze-thaw cycles ([1]; high QC concentration): −12.89%
- Stability RE, 30 days at −20 °C ([1]; high QC concentration): −12.35%
- Stability RE, 3 freeze-thaw cycles ([1]; low QC concentration): −14.23%
- Stability RE, 30 days at −20 °C ([1]; low QC concentration): −17.74%
- Stability RE, 3 freeze-thaw cycles ([1]; medium QC concentration): −7.2%
- Stability RE, 30 days at −20 °C ([1]; medium QC concentration): −13.85%
- Stability RE, processed samples' stability ([1]; high QC concentration): −12.47%
- Stability RE, processed samples' stability ([1]; low QC concentration): −9.27%
- Stability RE, processed samples' stability ([1]; medium QC concentration): −2.85%
- P-gp substrate (P-gp): P-gp substrates
- absorption rate constant (Ka) compared between intestinal sites [3]: greater than that at ileum and colon
- AUC(0-inf) ([2]; rat, in vivo, po, 3.38 g/kg): 96.6 ± 33.2 ng·h/mL
- AUC(0-t) ([2]; rat, in vivo, po, 3.38 g/kg): 88.3 ± 24.9 ng·h/mL
- Cmax ([2]; rat, in vivo, po, 3.38 g/kg): 34.1 ± 19.2 ng/mL
- MRT inf ([2]; rat, in vivo, po, 3.38 g/kg): 8.75 h
- MRT last ([2]; rat, in vivo, po, 3.38 g/kg): 6.74 h
- Tmax ([2]; rat, in vivo, po, 3.38 g/kg): 1.5 h
- half-life ([2]; rat, in vivo, po, 3.38 g/kg): 5.65 ± 2.41 h
- AUC(0-inf) ([2]; rat, in vivo, po, 3.76 g/kg): 18.9 ± 5.5 ng·h/mL
- AUC(0-t) ([2]; rat, in vivo, po, 3.76 g/kg): 18.2 ± 4.98 ng·h/mL
- Cmax ([2]; rat, in vivo, po, 3.76 g/kg): 9.74 ± 3.53 ng/mL
- MRT inf ([2]; rat, in vivo, po, 3.76 g/kg): 4.49 h
- MRT last ([2]; rat, in vivo, po, 3.76 g/kg): 3.86 h
- Tmax ([2]; rat, in vivo, po, 3.76 g/kg): 3 h
- half-life ([2]; rat, in vivo, po, 3.76 g/kg): 2.51 ± 1.73 h

Compound: Cn1c(=O)n(CCC2(O)C(=O)Nc3ccccc32)c(=O)c2ccccc21 (stereo not drawn) [wuchuyuamide-I]
- Stability RE, 3 freeze-thaw cycles ([1]; high QC concentration): 0.37%
- Stability RE, 30 days at −20 °C ([1]; high QC concentration): −1.38%
- Stability RE, 3 freeze-thaw cycles ([1]; low QC concentration): 18.91%
- Stability RE, 30 days at −20 °C ([1]; low QC concentration): 14.46%
- Stability RE, 3 freeze-thaw cycles ([1]; medium QC concentration): −14.69%
- Stability RE, 30 days at −20 °C ([1]; medium QC concentration): −10.79%
- Stability RE, processed samples' stability ([1]; high QC concentration): −10.58%
- Stability RE, processed samples' stability ([1]; low QC concentration): 15.1%
- Stability RE, processed samples' stability ([1]; medium QC concentration): −14.07%
- AIC (Akaike's information criterion method), two-compartment model fitting ([4]; oral FZJ extract): 66.844 ± 7.076
- r^2 (correlation coefficient method), two-compartment model fitting ([4]; oral FZJ extract): 0.519 ± 0.407
- AIC (Akaike's information criterion method), two-compartment model fitting ([4]; oral ZJ extract): 35.057 ± 11.851
- r^2 (correlation coefficient method), two-compartment model fitting ([4]; oral ZJ extract): 0.544 ± 0.140
- AUC0→∞/D (ratio of AUC0→∞ and dose) ([5]; oral FZJ extract): 278.39
- Cmax/D (ratio of Cmax and dose) ([5]; oral FZJ extract): 59.61
- AUC0→∞/D (ratio of AUC0→∞ and dose) ([5]; oral ZJ extract): 172.57
- Cmax/D (ratio of Cmax and dose) ([5]; oral ZJ extract): 46.62
- AUC(0-t) ([2]; 3.38 g/kg, rat plasma, oral ZJ extract, mean ± SD, n = 6, read-out: AUC0→t): 11.5 ± 1.4 ng·h/mL
- AUC(0-inf) ([2]; 3.38 g/kg, rat plasma, oral ZJ extract, mean ± SD, n = 6, read-out: AUC0→∞): 12.8 ± 1.43 ng·h/mL
- Cmax ([2]; 3.38 g/kg, rat plasma, oral ZJ extract, mean ± SD, n = 6, read-out: Cmax): 3.45 ± 1.73 ng/mL
- MRT last ([2]; 3.38 g/kg, rat plasma, oral ZJ extract, mean ± SD, n = 6, read-out: MRT0→t (converted)): 3.86 h
- MRT inf ([2]; 3.38 g/kg, rat plasma, oral ZJ extract, mean ± SD, n = 6, read-out: MRT0→∞ (converted)): 5.22 h
- half-life ([2]; 3.38 g/kg, rat plasma, oral ZJ extract, mean ± SD, n = 6, read-out: t1/2): 3.64 ± 1.5 h
- Tmax ([2]; 3.38 g/kg, rat plasma, oral ZJ extract, read-out: Tmax (converted)): 1.5 h
- AUC(0-t) ([2]; 3.76 g/kg, rat plasma, oral FZJ extract, mean ± SD, n = 6, read-out: AUC0→t): 48.2 ± 8.86 ng·h/mL
- AUC(0-inf) ([2]; 3.76 g/kg, rat plasma, oral FZJ extract, mean ± SD, n = 6, read-out: AUC0→∞): 50.1 ± 8.81 ng·h/mL
- Cmax ([2]; 3.76 g/kg, rat plasma, oral FZJ extract, mean ± SD, n = 6, read-out: Cmax): 10.7 ± 4.43 ng/mL
- MRT last ([2]; 3.76 g/kg, rat plasma, oral FZJ extract, mean ± SD, n = 6, read-out: MRT0→t (converted)): 5.77 h
- MRT inf ([2]; 3.76 g/kg, rat plasma, oral FZJ extract, mean ± SD, n = 6, read-out: MRT0→∞ (converted)): 6.89 h
- half-life ([2]; 3.76 g/kg, rat plasma, oral FZJ extract, mean ± SD, n = 6, read-out: t1/2): 4.92 ± 1.83 h
- Tmax ([2]; 3.76 g/kg, rat plasma, oral FZJ extract, read-out: Tmax (converted)): 0.5 h
- Tsec (time of the secondary peak in C–T curve) ([2]; rat plasma, oral ZJ extract): 20 min
- Csec (drug concentration of the secondary peak in C–T curve) ([2]; rat plasma, oral ZJ extract, mean ± SD, n = 6): 2.55 ± 0.38 ng/mL
